According to patent US20050107289A1, “Anti-microbial peptides and compositions” (priority 2001, published 2005):
Where a name gives a salt, the structure may show the parent alone. Read-outs that look alike come from different tables or passages of the source. Non-standard residues stand in square brackets, D forms with d. Residues, ends and D or L forms follow the SMILES beside them.

How the values were obtained:
[1] = test system: S. aureus (MRSA) ATCC 33591; format: cell-based, Staphylococcus aureus; details: Table 9
Protocol: (§1) The antimicrobial activity of the peptides was determined using a broth dilution assay essentially as descried in the guidelines of the National Committee for […] (NCCLS) [National Committee for Clinical Laboratory Standards. Methods for dilution antimicrobial susceptibility tests for bacteria that grow aerobically. Fourth edition. Approved Standard (1997). Document M7-A4. […] The microdilution method has the advantages of requiring less amount of peptide for each assay and the possibility of multiple simultaneous inoculations and was used in most studies. Several of the strains of bacteria tested are further described in Table 3.
(§2) Preparation of peptide solutions. Stock peptide solutions were prepared in 5% DMSO in aq. sucrose (9%). Determination of peptide concentrations was done by quantitative HPLC analysis using known concentrations of internal standards and/or by measuring UV absorption of tryptophane-containing peptide solutions in H2O (λ=280 εTrp: 5690). Serial 2-fold dilutions were made in the above DMSO/aq. sucrose (9%) mixture with concentrations ranging approximately 400-2 μg/ml and aliquots were dispensed in test tubes (100 μl) for the macrodilution test or in microtiter plates (20 μl) for the microdilution assays.
(§3) Inoculum preparation. Overnight cultures of different microorganisms grown in suitable media were diluted 4000 times to an approximate inoculum size of 2.5×10^5 cfu/ml.
(§4) Macrodilution method. Macrodilution methods were performed using procedures similar to those described in the National Committee for Clinical Laboratory Standards. Methods for dilution antimicrobial susceptibility tests for bacteria that grow aerobically. Fourth edition. Approved Standard (1997). Document M7-A4. (NCCLS,Villanova, Pa., 1997). Two ml aliquots of the above inoculum were dispensed to test tubes containing different peptide solutions.
(§5) Microdilution method. Microdilution methods were performed using procedures similar to those described in the National Committee for Clinical Laboratory Standards. Methods for dilution antimicrobial susceptibility tests for bacteria that grow aerobically. Fourth edition. Approved Standard (1997). Document M7-A4.

[2] = test system: vancomycin-resistant Enterococus faecalis (VRE)(ATCC 51575); format: cell-based, Enterococcus faecalis; parameters: key to VRE (in vitro activity): peptide concentration in μg/ml (broth dilution assay); details: Table 9
Protocol: as §1, §2, §3, §4, §5

murine red blood cells = test: Red blood cell hemolysis; format: cell-based, mouse
Protocol: Selectivity of cyclic peptides for bacterial over mammalian cells was evaluated by measuring red blood cell hemolytic activities as described in Tosteson, M. T. Holmes, S. J., Razin, M. and Tosteson, D. C. Melittin Lysis of Red Cells, J. Membrane Biol. 87, 35-44(1985). Heparinized murine blood was centrifuged at 1000×g for 10 minutes. The supernatant and the buffy coat were removed. Erythrocytes were washed three times with 0.9% saline solution and then resuspended to a concentration of 5% in saline containing 10% FBS (v/v). Red blood cells were then treated with serial dilutions of test peptides in a 96 well plate at 37° C. for 30 minutes. Control samples included a saline solution arid 1% Triton X-100 as 0 and 100% hemolysis, respectively. In some cases, mellitin was used as a further control. Mellitin is a linear peptide that is hemolytic against mammalian red blood cells in vitro at a concentration of about 10 μg/ml. Plates were centrifuged at 1000 g for 10 minutes. Aliquots of the supernatant were diluted 2 times with saline solution and the absorbance was measured at 560 nm.

[3] = media b: cation adjusted Meuller Hinton broth (MHBII)
[4] = media c: Brain Heart Infusion (BHI)
[5] = media a: anti-microbial media-3 (AM-3)

SMILES | MRSA (in vitro activity) [1, 3] | VRE (in vitro activity) [2, 4] | RBC Hemolysis (HD50) (murine red blood cells) | MRSA (in vitro activity) [1, 5] | VRE (in vitro activity) ([2]; media a: AM-3)
CC(C)C[C@@H]1NC(=O)[C@@H](Cc2c[nH]c3ccccc23)NC(=O)[C@H](CO)NC(=O)[C@@H](Cc2c[nH]c3ccccc23)NC(=O)[C@H](CCCCN)NC(=O)[C@@H](Cc2c[nH]c3ccccc23)NC(=O)[C@H](CCCCN)NC(=O)[C@@H](Cc2c[nH]c3ccccc23)NC1=O [SEQ ID NO:107, [KWKWSWLW]] (cyclo(K[dW]K[dW]S[dW]L[dW])) | 12 | 12 | 150 |  | 
CC(C)C[C@H]1NC(=O)[C@H](Cc2c[nH]c3ccccc23)NC(=O)[C@@H](CCCNC(=N)N)NC(=O)[C@H](CCCCN)NC(=O)[C@@H](CO)NC(=O)[C@H](CCCCN)NC(=O)[C@@H](CC(C)C)NC(=O)[C@H](Cc2c[nH]c3ccccc23)NC1=O [SEQ ID NO:75, [KRWLWLKS]] (cyclo(K[dR]W[dL]W[dL]K[dS])) |  |  | >48 | 9 | 22
C[C@H]1NC(=O)[C@H](CCCCN)NC(=O)[C@@H](Cc2ccccc2)NC(=O)[C@H](CCC(N)=O)NC(=O)[C@@H](C)NC(=O)[C@H](CCCCN)NC(=O)[C@@H](Cc2ccccc2)NC(=O)[C@H](Cc2c[nH]c3ccccc23)NC1=O [SEQ ID NO:97, [KAQFKAWF]] (cyclo(K[dA]Q[dF]K[dA]W[dF])) | 100 | 100 | >200 |  | 
CC(C)C[C@@H]1NC(=O)[C@@H](Cc2c[nH]c3ccccc23)NC(=O)[C@H](CCCCN)NC(=O)[C@@H](CO)NC(=O)[C@H](CCCCN)NC(=O)[C@@H](CO)NC(=O)[C@H](CCCCN)NC(=O)[C@@H](Cc2c[nH]c3ccccc23)NC1=O [SEQ ID NO:91, [KSKSKWLW]] (cyclo(K[dS]K[dS]K[dW]L[dW])) | 6 | 12 | 200 |  | 
CC(C)C[C@H]1NC(=O)[C@H](C)NC(=O)[C@@H](CC(C)C)NC(=O)[C@H](CCCCN)NC(=O)[C@@H](Cc2c[nH]cn2)NC(=O)[C@H](CCCCN)NC(=O)[C@@H](CC(C)C)NC(=O)[C@H](C)NC1=O [SEQ ID NO:45, [KHKLALAL]] (cyclo(K[dH]K[dL]A[dL]A[dL])) | 50 | 200 | >200 |  | 
CC(C)C[C@@H]1NC(=O)[C@@H](Cc2c[nH]c3ccccc23)NC(=O)[C@H](CCC(N)=O)NC(=O)[C@@H](CCC(=O)O)NC(=O)[C@H](CCCCN)NC(=O)[C@@H](Cc2c[nH]c3ccccc23)NC1=O [SEQ ID NO:118, [KEQWLW]] (cyclo(K[dE]Q[dW]L[dW])) |  |  | >115 | >115 | >115
CC(C)C[C@@H]1NC(=O)[C@@H](Cc2c[nH]c3ccccc23)NC(=O)[C@H](CCCCN)NC(=O)[C@@H](Cc2c[nH]cn2)NC(=O)[C@H](CO)NC(=O)[C@@H](Cc2c[nH]cn2)NC(=O)[C@H](CCCCN)NC(=O)[C@@H](Cc2c[nH]c3ccccc23)NC1=O [SEQ ID NO:88, [KHSHKWLW]] (cyclo([dW]L[dW]K[dH]S[dH]K)) | 6 | 6 | 200 |  | 
CC[C@H](C)[C@@H]1NC(=O)[C@@H](Cc2c[nH]c3ccccc23)NC(=O)[C@H](CCCCN)NC(=O)[C@@H](CCCNC(=N)N)NC(=O)[C@H](C)NC(=O)[C@@H](CC(C)C)NC1=O [SEQ ID NO:114, [KWILAR]] (cyclo(K[dW]I[dL]A[dR])) | 50 | >200 | >200 |  | 
CC(C)C[C@@H]1NC(=O)[C@@H](Cc2c[nH]c3ccccc23)NC(=O)[C@H](CCCCN)NC(=O)[C@@H](CCC(=O)O)NC(=O)[C@H](CCCCN)NC(=O)[C@@H](Cc2c[nH]c3ccccc23)NC1=O [SEQ ID NO:117, [KEKWLW]] (cyclo(K[dE]K[dW]L[dW])) |  |  | >121 | 101 | 91
NCCCC[C@@H]1NC(=O)[C@@H](Cc2ccccc2)NC(=O)[C@H](Cc2c[nH]c3ccccc23)NC(=O)[C@@H](Cc2ccccc2)NC(=O)[C@H](CCCCN)NC(=O)[C@@H](CC(N)=O)NC(=O)[C@H](CCC(N)=O)NC(=O)[C@@H](CC(N)=O)NC1=O [SEQ ID NO:89, [KNQNKFWF]] (cyclo(K[dN]Q[dN]K[dF]W[dF])) | 17 | 70 | 280 |  | 
CC(C)C[C@H]1NC(=O)[C@H](CCCCN)NC(=O)[C@@H](CC(N)=O)NC(=O)[C@H](CCC(N)=O)NC(=O)[C@@H](CC(N)=O)NC(=O)[C@H](CCCCN)NC(=O)[C@@H](CC(C)C)NC(=O)[C@H](Cc2c[nH]c3ccccc23)NC1=O [SEQ ID NO:90, [KNQNKLWL]] (cyclo(K[dN]Q[dN]K[dL]W[dL])) | >200 | >200 | >200 |  | 
CC(C)C[C@H]1NC(=O)[C@H](Cc2c[nH]c3ccccc23)NC(=O)[C@@H](CCCCN)NC(=O)[C@H](CCCCN)NC(=O)[C@@H](CCCCN)NC(=O)[C@H](Cc2c[nH]c3ccccc23)NC(=O)[C@@H](CC(C)C)NC(=O)[C@H](Cc2c[nH]c3ccccc23)NC1=O [[KKKWLWLW-HCl] (17), cyclo[-(D-Lys-Lys-D-Lys-(Trp-D-Leu)2-Trp-]] (cyclo([dK]K[dK]W[dL]W[dL]W)) | 6 | 6 | 75 |  | 
CC(C)C[C@H]1NC(=O)[C@H](CCCCN)NC(=O)[C@@H](CC(C)C)NC(=O)[C@H](Cc2c[nH]c3ccccc23)NC(=O)[C@@H](CC(C)C)NC(=O)[C@H](Cc2c[nH]c3ccccc23)NC(=O)[C@@H](CC(C)C)NC(=O)[C@H](Cc2c[nH]c3ccccc23)NC1=O [SEQ ID NO:41, [KLWLWLWL]] (cyclo(K[dL]W[dL]W[dL]W[dL])) | 12 | 25 | 30 |  | 
CC(C)C[C@@H]1NC(=O)[C@@H](Cc2c[nH]c3ccccc23)NC(=O)[C@H](CCCCN)NC(=O)[C@@H](CO)NC(=O)[C@H](CCCCN)NC(=O)[C@@H](Cc2c[nH]c3ccccc23)NC1=O [SEQ ID NO:126, [KSKWLW]] (cyclo(K[dS]K[dW]L[dW])) |  |  | >65 | 19 | 38
CC(C)C[C@@H]1NC(=O)[C@@H](Cc2c[nH]c3ccccc23)NC(=O)[C@H](CCCCN)NC(=O)[C@@H](CCCNC(=N)N)NC(=O)[C@H](CCCCN)NC(=O)[C@@H](Cc2c[nH]c3ccccc23)NC1=O [SEQ ID NO:125, [KRKWLW]] (cyclo(K[dR]K[dW]L[dW])) |  |  | >174 | 9 | 33
N=C(N)NCCC[C@H]1NC(=O)[C@H](CCCCN)NC(=O)[C@@H](Cc2ccccc2)NC(=O)[C@H](Cc2c[nH]c3ccccc23)NC(=O)[C@@H](Cc2ccccc2)NC(=O)[C@H](CCCCN)NC(=O)[C@@H](Cc2ccccc2)NC(=O)[C@H](CCC(N)=O)NC1=O [SEQ ID NO:102, [KRQFKFWF]] (cyclo(K[dR]Q[dF]K[dF]W[dF])) | 12 | 12 | >200 |  | 
CC(C)C[C@H]1NC(=O)[C@H](Cc2c[nH]c3ccccc23)NC(=O)[C@@H](Cc2c[nH]c3ccccc23)NC(=O)[C@H](CCCCN)NC(=O)[C@@H](Cc2c[nH]cn2)NC(=O)[C@H](Cc2c[nH]c3ccccc23)NC(=O)[C@@H](CC(C)C)NC(=O)[C@H](Cc2c[nH]c3ccccc23)NC1=O [SEQ ID NO:43, [KWWLWLWH]] (cyclo(K[dW]W[dL]W[dL]W[dH])) |  |  | >23 | 13 | 17
CC(C)C[C@H]1NC(=O)[C@H](C)NC(=O)[C@@H](CC(C)C)NC(=O)[C@H](Cc2ccccc2)NC(=O)[C@@H](CC(C)C)NC(=O)[C@H](CCCCN)NC(=O)[C@@H](Cc2c[nH]cn2)NC(=O)[C@H](CCCCN)NC1=O [SEQ ID NO:47, [KHKLFLAL]] (cyclo(K[dH]K[dL]F[dL]A[dL])) | 3 | 13 | >220 |  | 
